Read-outs that look alike come from different tables or passages of the source.
Test system: HIV strain containing the Y181C mutation
Experiment: Spread assay, Y181C mutant strain
Assay type: cell-based
Conditions: spread assay, Y181C mutant strain, read-out: CIC95
Protocol: Assays for the inhibition of acute HIV-1 infection of T-lymphoid cells (alternatively referred to herein as the “spread assay”) were conducted in accordance with Vacca, J. P. et al., Proc. Natl. Acad. Sci. USA 1994, 91: 4096. The assays (using 10% FBS) tested for inhibition of wild type HIV-1 and of HIV strains containing the Y181C or K103N mutation. […] (Note that the compound of Example 6 was tested only up to a 833 nM concentration and the CIC95 value was determined to be >833 nM. The compound of Example 78 was not tested in the Y1818C assay.) The compounds of Examples 1 to 119 (including Examples 70A and 70B) had CIC95 values of less than 1000 nanomolar in the assay employing the K103N mutant strain. In an analogous assay employing a mutant strain containing both the K103N and Y181C mutations, the compounds of Examples 70A, 70B and 78-115 had CIC95 values of less than 1000 nanomolar.

[1] = Human immunodeficiency virus 1, 10% FBS

Structure (SMILES) | IC95 [1] [µM] | IC95 (tested only up to a 833 nM concentration) [µM]
Cc1c(C(=O)N(C)Cc2ccc(Cl)cc2Cl)[nH]c(C(N)=O)c1S(=O)(=O)c1ccccc1 [Example 1, N-(2,4-Dichlorobenzyl)-N,3-dimethyl-4-(1-phenylsulfonyl)-1H-pyrrole-2,5-dicarboxamide] | < 8 | –
Cc1c(C(=O)N(C)Cc2ccc(Cl)cc2Cl)[nH]c(C(N)=O)c1S(=O)(=O)c1cc(Cl)cc(Cl)c1 [Example 2, N-(2,4-Dichlorobenzyl)-4-[(3,5-dichlorophenyl)sulfonyl]-N,3-dimethyl-1H-pyrrole-2,5-dicarboxamide] | < 8 | –
Cc1cc(C)cc(S(=O)(=O)c2c(C(N)=O)[nH]c(C(=O)N(C)Cc3ccccc3)c2C)c1 [Example 3, N-Benzyl-N,3-dimethyl-4-(3,5-dimethylphenylsulfonyl)-1H-pyrrole-2,5-dicarboxamide] | < 8 | –
Cc1c(C(=O)N(C)Cc2ccc(F)cc2Cl)[nH]c(C(N)=O)c1S(=O)(=O)c1ccccc1 [Example 4, N-(2-Chloro-4-fluorobenzyl)-N,3-dimethyl-4-(phenylsulfonyl)-1H-pyrrole-2,5-dicarboxamide] | < 8 | –
Cc1c(C(=O)N(C)Cc2ccccc2Cl)[nH]c(C(N)=O)c1S(=O)(=O)c1cccc2ccccc12 [Example 5, N-(2-Chlorobenzyl)-N,3-dimethyl-4-(1-naphthylsulfonyl)-1H-pyrrole-2,5-dicarboxamide] | < 8 | –
Cc1c(C(=O)N(C)Cc2ccccc2Cl)[nH]c(C(N)=O)c1S(=O)(=O)c1ccc2ccccc2c1 [Example 6, N-(2-Chlorobenzyl)-N,3-dimethyl-4-(2-naphthylsulfonyl)-1H-pyrrole-2,5-dicarboxamide] | – | > 0.833
Cc1c(C(=O)N(C)Cc2ccccc2F)[nH]c(C(N)=O)c1S(=O)(=O)c1ccccc1 [Example 7, N-(2-fluorobenzyl)-N,3-dimethyl-4-(phenylsulfonyl)-1H-pyrrole-2,5-dicarboxamide] | < 8 | –
Cc1c(C(=O)N(C)Cc2ccccc2Cl)[nH]c(C(N)=O)c1S(=O)(=O)c1ccccc1 [Example 8, N-(2-chlorobenzyl)-N,3-dimethyl-4-(phenylsulfonyl)-1H-pyrrole-2,5-dicarboxamide] | < 8 | –
Cc1c(C(=O)N(C)Cc2ccccc2Br)[nH]c(C(N)=O)c1S(=O)(=O)c1ccccc1 [Example 9, N-(2-bromobenzyl)-N,3-dimethyl-4-(phenylsulfonyl)-1H-pyrrole-2,5-dicarboxamide] | < 8 | –
Cc1c(C(=O)N(C)Cc2cccc(Cl)c2)[nH]c(C(N)=O)c1S(=O)(=O)c1ccccc1 [Example 10, N-(3-chlorobenzyl)-N,3-dimethyl-4-(phenylsulfonyl)-1H-pyrrole-2,5-dicarboxamide] | < 8 | –
Cc1c(C(=O)N(C)Cc2ccc(Br)cc2)[nH]c(C(N)=O)c1S(=O)(=O)c1ccccc1 [Example 11, N-(4-bromobenzyl)-N,3-dimethyl-4-(phenylsulfonyl)-1H-pyrrole-2,5-dicarboxamide] | < 8 | –
Cc1c(C(=O)N(C)Cc2ccc(Cl)cc2F)[nH]c(C(N)=O)c1S(=O)(=O)c1ccccc1 [Example 12, N-(4-chloro-2-fluorobenzyl)-N,3-dimethyl-4-(phenylsulfonyl)-1H-pyrrole-2,5-dicarboxamide] | < 8 | –
Cc1c(C(=O)N(C)Cc2cccc(Cl)c2Cl)[nH]c(C(N)=O)c1S(=O)(=O)c1ccccc1 [Example 13, N-(2,3-dichlorobenzyl)-N,3-dimethyl-4-(phenylsulfonyl)-1H-pyrrole-2,5-dicarboxamide] | < 8 | –
Cc1c(C(=O)N(C)Cc2ccc(Cl)c(Cl)c2)[nH]c(C(N)=O)c1S(=O)(=O)c1ccccc1 [Example 14, N-(3,4-dichlorobenzyl)-N,3-dimethyl-4-(phenylsulfonyl)-1H-pyrrole-2,5-dicarboxamide] | < 8 | –
Cc1c(C(=O)N(C)Cc2ccc(S(C)(=O)=O)cc2Cl)[nH]c(C(N)=O)c1S(=O)(=O)c1ccccc1 [Example 15, N-(2-chloro-4-methylsulfonylbenzyl)-N,3-dimethyl-4-(phenylsulfonyl)-1H-pyrrole-2,5-dicarboxamide] | < 8 | –

Reference: US20100113421A1, “NON-NUCLEOSIDE REVERSE TRANSCRIPTASE INHIBITORS” (priority 2006, published 2010)
